Data on 26 molecules can be found in ChEMBL document CHEMBL5046295 (J Med Chem, 2022).

Assay [1] deals with T1, Mu-type opioid receptor (Mus musculus, UniProt P42866).
Assay [2] relates to Mus musculus. The assay is described as follows: Antinociceptive activity against Swiss Webster mouse model assessed as increase in tail withdrawal latency from warm water at 10 mg/kg, sc incubated for 5 mins followed by morphine addition and measured after 20 mins by warm water tail immersion assay. Type of assay: functional, organism-based.
Assay [3] concerns the target Delta-type opioid receptor (Homo sapiens, UniProt P41143).
Description: Displacement of [3H]-diprenorphine from human delta opioid receptor expressed in CHO cell membranes assessed as inhibition constant incubated for 1.5 hrs by competitive binding assay
The target in assay [4] is T1, Mu-type opioid receptor. Kind of assay: Partial agonist activity at mouse mu opioid receptor expressed in CHO cell membranes incubated for 1.5 hrs by [35S]GTPgammaS binding based liquid scintillation counting method.
Assay [5] relates to Mus musculus. Kind of assay: Antinociceptive activity against Swiss Webster mouse model assessed as increase in tail withdrawal latency from warm water by measuring maximum possible effect at 10 mg/kg, sc measured after 20 min by warm water tail immersion assay. Type of assay: functional, organism-based.
The target in assay [6] is Kappa-type opioid receptor (Mus musculus, UniProt P33534).
Chain of Kappa-type opioid receptor (P33534 whole entry): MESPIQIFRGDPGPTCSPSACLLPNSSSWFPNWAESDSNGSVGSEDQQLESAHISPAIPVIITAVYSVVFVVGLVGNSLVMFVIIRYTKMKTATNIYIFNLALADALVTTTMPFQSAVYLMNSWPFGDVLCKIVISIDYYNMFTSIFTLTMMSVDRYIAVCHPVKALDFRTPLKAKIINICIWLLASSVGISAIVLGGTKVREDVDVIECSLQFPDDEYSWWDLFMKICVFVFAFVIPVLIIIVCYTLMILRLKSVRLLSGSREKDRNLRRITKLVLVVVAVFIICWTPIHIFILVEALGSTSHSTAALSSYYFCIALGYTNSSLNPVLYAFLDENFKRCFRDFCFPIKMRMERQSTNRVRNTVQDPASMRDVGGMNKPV
Description: Displacement of [3H]-diprenorphine from mouse kappa opioid receptor expressed in CHO cell membranes assessed as inhibition constant incubated for 1.5 hrs by competitive binding assay

pEC50, pKi: −log10 of the molar value. Calls of active or inactive are those of the source. The rule behind the calls is not given here.

T1 sequence (P42866 whole entry): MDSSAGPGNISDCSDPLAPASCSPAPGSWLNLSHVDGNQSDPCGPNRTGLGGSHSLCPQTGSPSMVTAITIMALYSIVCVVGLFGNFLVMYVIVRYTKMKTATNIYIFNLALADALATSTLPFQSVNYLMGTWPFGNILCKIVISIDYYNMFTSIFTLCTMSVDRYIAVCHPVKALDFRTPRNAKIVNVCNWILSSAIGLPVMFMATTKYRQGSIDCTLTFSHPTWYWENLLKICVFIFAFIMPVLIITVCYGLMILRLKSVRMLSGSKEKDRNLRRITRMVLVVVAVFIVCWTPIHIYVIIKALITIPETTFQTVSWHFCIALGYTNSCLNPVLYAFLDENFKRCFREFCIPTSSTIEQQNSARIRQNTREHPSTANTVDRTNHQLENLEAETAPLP
Chain of Delta-type opioid receptor (P41143 whole entry): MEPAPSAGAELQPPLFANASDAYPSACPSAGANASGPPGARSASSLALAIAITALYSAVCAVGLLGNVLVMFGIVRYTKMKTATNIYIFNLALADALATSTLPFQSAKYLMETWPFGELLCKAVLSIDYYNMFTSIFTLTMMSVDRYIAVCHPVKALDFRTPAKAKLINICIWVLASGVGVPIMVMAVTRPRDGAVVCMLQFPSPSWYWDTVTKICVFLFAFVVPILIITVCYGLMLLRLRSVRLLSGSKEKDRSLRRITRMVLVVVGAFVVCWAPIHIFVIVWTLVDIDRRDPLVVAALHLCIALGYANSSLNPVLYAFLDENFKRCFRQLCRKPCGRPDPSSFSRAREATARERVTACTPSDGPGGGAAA

On to `O=C(CCc1cc[nH]c1)N[C@@H]1CC[C@@]2(O)[C@H]3Cc4ccc(O)c5c4[C@@]2(CCN3CC2CC2)[C@H]1O5`, for which the negative logarithm of the Ki (pKi) at Mu-type opioid receptor [1] is 9.39; in assay [3], 7.17; in assay [6], 8.57. In addition, the outcome in the assay with Mus musculus [2] and in the assay with Mus musculus [5] was inactive. Further, the negative-log EC50 (pEC50) at Mu-type opioid receptor [4] is 8.80.

With `O=C(Cc1cc[nH]c1)N[C@@H]1CC[C@@]2(O)[C@H]3Cc4ccc(O)c5c4[C@@]2(CCN3CC2CC2)[C@H]1O5`, the pKi at Mu-type opioid receptor [1] is 9.55; in assay [3], 7.42; in assay [6], 8.38. For the same molecule, the result in the assay on Mus musculus [2] and in the assay with Mus musculus [5] was inactive. The same molecule gave a pEC50 on Mu-type opioid receptor [4] of 8.93.

For `O=C(Cc1ccoc1)N[C@H]1CC[C@@]2(O)[C@H]3Cc4ccc(O)c5c4[C@@]2(CCN3CC2CC2)[C@H]1O5`, the pKi on Mu-type opioid receptor [1] was 9.38; in assay [3], 8.43; in assay [6], 8.19. The outcome in the assay on Mus musculus [2] and with Mus musculus [5] was inactive. In addition, on Mu-type opioid receptor [4], the negative logarithm of the EC50 (pEC50) is 8.08.

Regarding `O=C(N[C@H]1CC[C@@]2(O)[C@H]3Cc4ccc(O)c5c4[C@@]2(CCN3CC2CC2)[C@H]1O5)c1ccoc1`, the negative logarithm of the Ki (pKi) on Mu-type opioid receptor [1] was 9.30; in assay [3], 7.54; in assay [6], 8.67. The pEC50 on Mu-type opioid receptor [4] was 8.12. Moreover, in the assay with Mus musculus [5], the outcome was Active.

`O=C(Cc1ccc[nH]1)N[C@@H]1CC[C@@]2(O)[C@H]3Cc4ccc(O)c5c4[C@@]2(CCN3CC2CC2)[C@H]1O5`: the negative logarithm of the Ki (pKi) on Mu-type opioid receptor [1] was 9.80; in assay [3], 7.61; in assay [6] it was 8.87. In addition, at Mu-type opioid receptor [4], the pEC50 is 9.10. Besides, in the assay with Mus musculus [5], the result was Active.

Take `O=C(CCc1ccc[nH]1)N[C@@H]1CC[C@@]2(O)[C@H]3Cc4ccc(O)c5c4[C@@]2(CCN3CC2CC2)[C@H]1O5`: the pKi at Mu-type opioid receptor [1] was 9.28; in assay [3] it was 7.44; in assay [6], 8.90. In addition, the pEC50 on Mu-type opioid receptor [4] was 8.91. Moreover, the outcome in the assay with Mus musculus [5] was Active.

With `O=C(Cc1ccoc1)N[C@@H]1CC[C@@]2(O)[C@H]3Cc4ccc(O)c5c4[C@@]2(CCN3CC2CC2)[C@H]1O5`, the pKi at Mu-type opioid receptor [1] was 9.66; in assay [3], 7.14; in assay [6], 8.43. In addition, the outcome with Mus musculus [2] and with Mus musculus [5] was inactive. At Mu-type opioid receptor [4], this molecule gave a pEC50 of 9.04.

With `O=C(Cc1cccs1)N[C@@H]1CC[C@@]2(O)[C@H]3Cc4ccc(O)c5c4[C@@]2(CCN3CC2CC2)[C@H]1O5`, the outcome in the assay with Mus musculus [2] and in the assay on Mus musculus [5] was inactive. The pKi in assay [3] was 7.19.

`O=C(CCc1ccco1)N[C@@H]1CC[C@@]2(O)[C@H]3Cc4ccc(O)c5c4[C@@]2(CCN3CC2CC2)[C@H]1O5`: the result in the assay on Mus musculus [2] and in the assay on Mus musculus [5] was inactive.

For `O=C(N[C@@H]1CC[C@@]2(O)[C@H]3Cc4ccc(O)c5c4[C@@]2(CCN3CC2CC2)[C@H]1O5)c1ccoc1`, the negative logarithm of the Ki (pKi) at Mu-type opioid receptor [1] was 8.07; in assay [3] it was 5.70; in assay [6], 7.53. Moreover, the pEC50 at Mu-type opioid receptor [4] is 7.46. Moreover, the outcome in the assay on Mus musculus [5] was Active.

For `O=C(N[C@@H]1CC[C@@]2(O)[C@H]3Cc4ccc(O)c5c4[C@@]2(CCN3CC2CC2)[C@H]1O5)c1ccc[nH]1`, the result in the assay with Mus musculus [2] and with Mus musculus [5] was inactive.

`O=C(N[C@@H]1CC[C@@]2(O)[C@H]3Cc4ccc(O)c5c4[C@@]2(CCN3CC2CC2)[C@H]1O5)c1cccs1`: in the assay with Mus musculus [2], the outcome was Active. Moreover, in the assay with Mus musculus [5], the outcome was inactive.

On to `O=C(Cc1cc[nH]c1)N[C@H]1CC[C@@]2(O)[C@H]3Cc4ccc(O)c5c4[C@@]2(CCN3CC2CC2)[C@H]1O5`, for which the negative logarithm of the Ki (pKi) on Mu-type opioid receptor [1] is 8.44; in assay [3], 7.84; in assay [6] it was 7.72. Moreover, the outcome in the assay on Mus musculus [2] and with Mus musculus [5] was inactive. Moreover, the negative-log EC50 (pEC50) at Mu-type opioid receptor [4] was 7.29.

For the molecule `O=C(N[C@H]1CC[C@@]2(O)[C@H]3Cc4ccc(O)c5c4[C@@]2(CCN3CC2CC2)[C@H]1O5)c1cc[nH]c1`, the pKi at Mu-type opioid receptor [1] was 8.88; in assay [3] it was 7.39; in assay [6], 8.56. For the same molecule, the result with Mus musculus [2] and in the assay with Mus musculus [5] was inactive. At Mu-type opioid receptor [4], this molecule showed a pEC50 of 8.66.

`O=C(N[C@@H]1CC[C@@]2(O)[C@H]3Cc4ccc(O)c5c4[C@@]2(CCN3CC2CC2)[C@H]1O5)c1cc[nH]c1`: the negative-log Ki (pKi) was 9.44 at Mu-type opioid receptor [1], 6.97 in assay [3] and 8.35 in assay [6]. At Mu-type opioid receptor [4], this molecule had a negative-log EC50 (pEC50) of 8.69. The result in the assay with Mus musculus [5] was Active.

Regarding `O=C(CCc1ccoc1)N[C@@H]1CC[C@@]2(O)[C@H]3Cc4ccc(O)c5c4[C@@]2(CCN3CC2CC2)[C@H]1O5`, the result with Mus musculus [2] and in the assay on Mus musculus [5] was inactive. For the same molecule, the negative-log EC50 (pEC50) on Mu-type opioid receptor [4] is 9.20.

For the molecule `O=C(CCc1ccco1)N[C@H]1CC[C@@]2(O)[C@H]3Cc4ccc(O)c5c4[C@@]2(CCN3CC2CC2)[C@H]1O5`, the outcome with Mus musculus [2] and in the assay with Mus musculus [5] was inactive.

Turning to `O=C(N[C@H]1CC[C@@]2(O)[C@H]3Cc4ccc(O)c5c4[C@@]2(CCN3CC2CC2)[C@H]1O5)c1ccco1`, the pKi at Mu-type opioid receptor [1] was 9.28; in assay [3] it was 7.48; in assay [6] it was 8.71. Further, the outcome in the assay on Mus musculus [2] and in the assay with Mus musculus [5] was inactive. At Mu-type opioid receptor [4], this molecule had a negative-log EC50 (pEC50) of 8.02.

For the molecule `O=C(Cc1cccs1)N[C@H]1CC[C@@]2(O)[C@H]3Cc4ccc(O)c5c4[C@@]2(CCN3CC2CC2)[C@H]1O5`, the outcome in the assay on Mus musculus [2] and with Mus musculus [5] was inactive.

Regarding `O=C(N[C@H]1CC[C@@]2(O)[C@H]3Cc4ccc(O)c5c4[C@@]2(CCN3CC2CC2)[C@H]1O5)c1ccc[nH]1`, the result in the assay on Mus musculus [2] was Active. For the same molecule, in the assay on Mus musculus [5], the outcome was inactive.

In the case of `O=C(N[C@@H]1CC[C@@]2(O)[C@H]3Cc4ccc(O)c5c4[C@@]2(CCN3CC2CC2)[C@H]1O5)c1ccsc1`, in the assay on Mus musculus [2], the result was Active. In the assay on Mus musculus [5], the result was inactive.

Turning to `O=C(CCc1ccsc1)N[C@H]1CC[C@@]2(O)[C@H]3Cc4ccc(O)c5c4[C@@]2(CCN3CC2CC2)[C@H]1O5`, the outcome in the assay with Mus musculus [2] and with Mus musculus [5] was inactive.

For `O=C(CCc1cccs1)N[C@H]1CC[C@@]2(O)[C@H]3Cc4ccc(O)c5c4[C@@]2(CCN3CC2CC2)[C@H]1O5`, the results for the pKi (at Mu-type opioid receptor [1]; in assay [3]; in assay [6]) were 9.32, 8.65 and 8.75, respectively. The result with Mus musculus [2] and in the assay on Mus musculus [5] was inactive. At Mu-type opioid receptor [4], this molecule showed a pEC50 of 8.51.

For `O=C(CCc1ccoc1)N[C@H]1CC[C@@]2(O)[C@H]3Cc4ccc(O)c5c4[C@@]2(CCN3CC2CC2)[C@H]1O5`, the result with Mus musculus [2] and with Mus musculus [5] was inactive. On Mu-type opioid receptor [4], this molecule gave a pEC50 of 8.64.

Regarding `O=C(CCc1cccs1)N[C@@H]1CC[C@@]2(O)[C@H]3Cc4ccc(O)c5c4[C@@]2(CCN3CC2CC2)[C@H]1O5`, the result with Mus musculus [5] was Active.

For the molecule `O=C(CCc1ccsc1)N[C@@H]1CC[C@@]2(O)[C@H]3Cc4ccc(O)c5c4[C@@]2(CCN3CC2CC2)[C@H]1O5`, the result with Mus musculus [5] was Active.
